The source of these data is PMC11173529, “Structure–Activity Relationship Studies in a Series of Xanthine Inhibitors of SLACK Potassium Channels” (Molecules, 2024).

In general, IC50 refers to the concentration that inhibits the measured activity by half.

The target of the test is T1, WT hSLACK (Homo sapiens, UniProt Q5JUK3).
T1 construct: host or cells: CHO-K1
T1 sequence (Q5JUK3 1-1235 isoform Q5JUK3-3): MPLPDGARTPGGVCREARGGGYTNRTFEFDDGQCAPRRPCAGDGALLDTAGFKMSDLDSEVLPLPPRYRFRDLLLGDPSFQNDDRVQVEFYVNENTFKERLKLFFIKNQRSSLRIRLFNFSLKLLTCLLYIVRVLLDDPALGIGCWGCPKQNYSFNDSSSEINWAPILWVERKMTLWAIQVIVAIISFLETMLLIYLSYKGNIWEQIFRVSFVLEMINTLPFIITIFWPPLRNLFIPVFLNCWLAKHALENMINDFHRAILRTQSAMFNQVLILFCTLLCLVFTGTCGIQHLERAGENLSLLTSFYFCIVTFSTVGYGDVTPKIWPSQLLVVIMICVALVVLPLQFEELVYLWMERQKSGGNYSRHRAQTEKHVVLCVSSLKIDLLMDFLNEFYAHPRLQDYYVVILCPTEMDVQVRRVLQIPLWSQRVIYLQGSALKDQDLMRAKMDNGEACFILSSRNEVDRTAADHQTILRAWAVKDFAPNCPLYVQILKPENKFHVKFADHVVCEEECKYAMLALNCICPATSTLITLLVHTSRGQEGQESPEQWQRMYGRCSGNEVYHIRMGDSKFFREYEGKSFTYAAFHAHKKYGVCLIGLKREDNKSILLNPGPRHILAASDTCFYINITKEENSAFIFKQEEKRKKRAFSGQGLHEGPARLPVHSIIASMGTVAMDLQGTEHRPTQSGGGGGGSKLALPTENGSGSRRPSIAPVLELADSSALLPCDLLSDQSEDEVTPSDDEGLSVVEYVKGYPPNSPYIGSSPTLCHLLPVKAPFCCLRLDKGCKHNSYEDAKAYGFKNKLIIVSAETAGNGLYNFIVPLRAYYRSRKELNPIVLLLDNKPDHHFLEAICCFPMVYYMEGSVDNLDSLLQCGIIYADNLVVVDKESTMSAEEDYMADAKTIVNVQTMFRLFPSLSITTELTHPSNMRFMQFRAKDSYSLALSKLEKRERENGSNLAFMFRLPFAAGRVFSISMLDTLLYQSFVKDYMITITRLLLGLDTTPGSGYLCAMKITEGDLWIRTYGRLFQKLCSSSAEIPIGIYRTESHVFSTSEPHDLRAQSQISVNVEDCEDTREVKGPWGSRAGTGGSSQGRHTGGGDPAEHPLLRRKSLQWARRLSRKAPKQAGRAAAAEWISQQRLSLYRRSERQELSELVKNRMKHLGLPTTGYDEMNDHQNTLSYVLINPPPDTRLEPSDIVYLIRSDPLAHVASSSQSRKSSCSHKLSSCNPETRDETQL
Briefly: Whole-cell automated patch-clamp (APC) in CHO cells stably expressing WT hSLACK. The test is classed as cell-based. Particulars: for SLACK Imax: maximum inhibition at 30 µM test compound standardized to VU0606170 (set at 100%), WT hSLACK; for IC50: whole-cell APC, CHO cells stably expressing WT hSLACK, averages n ≥ 3, read-out: SLACK IC50. Here is the method:
All new analogs were tested in our APC assay using CHO cells stably expressing WT SLACK using a concentration-response format with concentrations ranging from 0.125 to 30 μM in half-log steps and a minimum of three cells (replicates) per concentration series. […] Still, there were some notable results. For example, substitution at the 4-position was largely unfavorable regardless of the nature of the substituent (21, 24, 27, 30, and 33) apart from the 4-fluoro analog 18. […] As the trifluoromethyl group is similar in electronegativity to chlorine, but larger than both methyl and chlorine, perhaps the steric bulk of the trifluoromethyl is to blame for the poor potency of these analogs. With the exception of the fluoro (16–18) and cyano (28–30) analogs, substitution at the 3-position was favorable for SLACK activity, with 3-methoxy analog 32 standing out in this set.
Stably transfected monoclonal HEK293 cell lines expressing Slick, Maxi-K α1/β3, Maxi-K α1/β4, CaV3.2, GIRK 1/2, KV2.1, KV7.2, NaV1.7, and TASK-1 were generated as previously described. Stably transfected monoclonal HEK293 cell lines expressing hERG were generated as previously described. CHO-K1 cells expressing human Slack and disease-associated human Slack mutations, G288S and A934T, were generated by transfecting a PiggyBac TRE mammalian expression vector (VectorBuilder, Chicago, IL, USA) containing KCNT1. FuGENE 6 (Promega, Madison, WI, USA) transfection reagent and protocol, together with Opti-MEM (Thermo Fisher Scientific, Walkham, MA, USA), were utilized.
Automated patch-clamp recording was performed with a SyncroPatch 768 PE system (Nanion, Munich, Germany) as previously described. Whole-cell recordings were performed at room temperature. Cells were harvested by first washing with PBS without Mg^2+ or Ca^2+ (Gibco, Billings, MT, USA) to remove cell culture media, followed by dissociation with TryPLE (Gibco, Billings, MT, USA). Cells were then resuspended and diluted to 100,000 cells/mL in external solution. External solution contained 105 mM NaCl, 4 mM KCl, 1 mM MgCl2, 5 mM CaCl2, 10 mM HEPES, and 40 mM N-Methyl-D-glucamine chloride, titrated to pH of 7.4 and osmolarity of 300 mOsm/kg; internal solution contained 70 mM NaCl, 70 mM KF, 10 mM KCl, 5 mM EGTA, and 5 mM HEPES, titrated to a pH of 7.2 and osmolarity of 295 mOsm/kg.
The APC protocol was set as follows: Cells were held at a […] of −80 mV for 100 ms, then a ramp protocol was performed from −100 mV to 80 mV at 0.4 mV/ms, followed by holding the cell at −80 mV for another 100 ms, then steps were performed at −20 mV, 0 mV, +20 mV, +40 mV, and +60 mV for 100 ms of each step. Whole-cell currents were measured at 0 mV and normalized to current after external buffer addition. […] To obtain the concentration-response relationship graphs and IC50 values, we take the median value of the last 7 current amplitude values obtained for each set of data points collected for a given concentration at a particular step.

In the case of `COc1cccc(Cn2c(=O)c3c(nc(N(C)Cc4ccccc4)n3C)n(C)c2=O)c1` [Analog 32], the “SLACK Imax” value is 100% and the concentration for half-maximal inhibition (IC50) was determined as 0.8 µM.
Taken in the same sequence, the figures for `CN(Cc1cccc(F)c1)c1nc2c(c(=O)n(Cc3ccccc3)c(=O)n2C)n1C` [Analog 48] were 100% and 0.89 µM.
For `CCCCN(Cc1ccccc1)c1nc2c(c(=O)n(Cc3ccccc3)c(=O)n2C)n1C` [Analog 70], in that order: 100% and 0.94 µM.
In the case of `Cn1c(N(Cc2ccccc2)CC2CC2)nc2c1c(=O)n(Cc1ccccc1)c(=O)n2C` [Analog 71], the “SLACK Imax” value is reported as 100% and the IC50 was found to be 0.98 µM.
In the case of `CCCCN(Cc1cccc(F)c1)c1nc2c(c(=O)n(Cc3cccc(OC)c3)c(=O)n2C)n1C` [Analog 78], the concentration for half-maximal inhibition (IC50) came out at 1.2 µM.
On to `COc1cccc(Cn2c(=O)c3c(nc(N(Cc4cccc(F)c4)CC4CC4)n3C)n(C)c2=O)c1` [Analog 79], for which the IC50 is 1 µM.
Still for that read-out and setting: the value for `CCCCN(Cc1ccc(F)cc1)c1nc2c(c(=O)n(Cc3cccc(OC)c3)c(=O)n2C)n1C` [Analog 80] was 0.7 µM; that for `COc1cccc(Cn2c(=O)c3c(nc(N(Cc4ccc(F)cc4)CC4CC4)n3C)n(C)c2=O)c1` [Analog 81] was 1.5 µM.
